The values that follow come from PubChem BioAssay AID2060485 (Molecular Pharmacology Branch, DTP, NCI, 2025).

A word on the viability, T/C: it is the ratio of treated to control. The IC50 is the concentration that inhibits the measured activity by half.

The test has as its system A375 multi-cell spheroids with HUVEC/MSC, viability. Description: Anticancer human tumor A375 cell line growth inhibition [GQUAD].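 As to all read-outs here: spheroids exposed to compounds for seven days before readout.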 Particulars: for viability, T/C: stronger effect = lower value. An excerpt: DNA G-quadruplex Stabilizer Agents in Combinations in Complex Spheroids
A high-throughput screen of multi-cell type tumor spheroids was designed to identify active combinations of DNA G-quadruplex stabilizer agents and targeted small molecules. Complex spheroids include a stromal component modeled by human endothelial cells (HUVEC) and fibroblasts modeled by human mesenchymal stem cells (MSCs). The concentration ranges selected for each drug and investigational agent were based upon clinically achievable concentrations if the clinical Cmax of the agent was known.
Compounds. The drugs and investigational agents: pidnarulex (CX-5461; NSC782164), APTO-253 (NSC789042), BRACO-19 (NSC847499), peposertib (NSC802822), ceralasertib (NSC780249), elimusertib (NSC800525), camonsertib (NSC841442), AZD-1390 (NSC803789), olaparib (NSC753686), talazoparib (NSC767125), ART-558 (NSC835418), sotorasib (NSC818433), MRTX-1133 (NSC836407), SN-38 (NSC673596), topotecan (NSC609699), etoposide (NSC141540), doxorubicin (NSC123127), gemcitabine (NSC613327), 5-fluorouracil (NSC19893), paclitaxel (NSC125973), vemurafenib (NSC761431), panobinostat (NSC761190), R-306465 (JNJ-16241199; NSC773264), adavosertib (NSC754352), TP-3654 (NSC805149), carboplatin (NSC241240), KSQ-4279 (NSC840948), and staurosporine (NSC755774) were obtained from the National Cancer Institute (NCI) Developmental Therapeutics Program Chemical Repository (34). The FDA-approved anticancer drug set is available from the NCI Developmental Therapeutics Program. […] The stock solutions were prepared in dimethyl sulfoxide (DMSO, Sigma-Aldrich, St. Louis, MO, cat. D2650) at 800-fold the tested concentration and stored at -70 degrees C prior to their use. All drugs and investigational agents were tested over a range starting from a high concentration at or near the clinical Cmax and decreasing in half-log increments. If the clinical Cmax for an agent had not been determined, the highest concentration tested was 10 microM.
2.3 Cell Culture. All cells were maintained in an incubator at 37 degrees C and 5% CO2 with 95% humidity. The PDC lines were cultured according to standard operating procedures established by the NCI PDMR. All PDCs were thawed and cultured in Matrigel-coated flasks prepared with a working solution of 1X Ham's F-12 nutrient mix, without supplementation (Invitrogen, cat. 11765054), 100 U/mL penicillin-streptomycin (Invitrogen, cat. 15140122), and 2.5% Matrigel (Corning Inc., cat. 354248) for the first three passages. The 857933-349-R-J2-PDC line was cultured in 6C/Colon 1B media, which includes advanced DMEM/F-12 (Thermo Fisher Scientific, cat. 12634028), 10 mM HEPES (Thermo Fisher Scientific, cat. 15630080), 1X GlutaMAX supplement (Thermo Fisher Scientific, cat. 35050061), 0.1 mg/mL primocin (InvivoGen, cat. ant-pm-2), 10% defined fetal bovine serum, heat inactivated (HyClone Laboratories Inc., cat. SH30070.03HI), 50% L-WRN conditioned media (ATCC, cat. CRL-3276), 1.25 mM N-Acetyl-L-cysteine (Sigma-Aldrich, cat. A9165), 10 mM nicotinamide (Sigma-Aldrich, cat. N0636), 1X B-27 supplement (Thermo Fisher Scientific, cat. 17504044), 1X N-2 supplement (Thermo Fisher Scientific, cat. 17502048), 10 microM Y-27632 dihydrochloride (Tocris Bioscience, cat. 1254), and 50 ng/mL human EGF recombinant protein (Thermo Fisher Scientific, cat. PHG0311). The 485176-168-R4-J1-PDC line was cultured in Panc media, which includes all 6C/Colon 1B media components plus 100 ng/mL human FGF-10 (Thermo Fisher Scientific, cat. 100-26), 500 nM SB-431542 (Selleckchem, cat. S1067), and gastrin (Tocris, cat. 3006).
[…]

The mark [1] stands for this setting: curve of first compound, second compound 0.0316 µM.
[2] abbreviates: curve of first compound, second compound 0.1 µM.
[3] abbreviates: curve of first compound, second compound 0.316 µM.
Setting [4] is: curve of first compound, second compound 1 µM.
The mark [5] stands for this setting: curve of first compound, second compound 3.16 µM.
[6] abbreviates: curve of first compound, second compound 10 µM.
The mark [7] stands for this setting: second compound 0.0316 µM, first compound 0.0316 µM.
The mark [8] stands for this setting: second compound 0.0316 µM, first compound 0.1 µM.
[9] abbreviates: second compound 0.0316 µM, first compound 0.316 µM.
The mark [10] stands for this setting: second compound 0.0316 µM, first compound 1 µM.
Where [11] appears, read: second compound 0.0316 µM, first compound 3.16 µM.
[12] abbreviates: second compound 0.0316 µM, first compound 10 µM.
[13] abbreviates: second compound 0.1 µM, first compound 0.0316 µM.
Setting [14] is: second compound 0.1 µM, first compound 0.1 µM.
[15] abbreviates: second compound 0.1 µM, first compound 0.316 µM.
The mark [16] stands for this setting: second compound 0.1 µM, first compound 1 µM.
Where [17] appears, read: second compound 0.1 µM, first compound 3.16 µM.
Where [18] appears, read: second compound 0.1 µM, first compound 10 µM.
Where [19] appears, read: second compound 0.316 µM, first compound 0.0316 µM.
Where [20] appears, read: second compound 0.316 µM, first compound 0.1 µM.
Where [21] appears, read: second compound 0.316 µM, first compound 0.316 µM.
Setting [22] is: second compound 0.316 µM, first compound 1 µM.
[23] abbreviates: second compound 0.316 µM, first compound 3.16 µM.
[24] abbreviates: second compound 0.316 µM, first compound 10 µM.
The mark [25] stands for this setting: second compound 1 µM, first compound 0.0316 µM.
Where [26] appears, read: second compound 1 µM, first compound 0.1 µM.
[27] abbreviates: second compound 1 µM, first compound 0.316 µM.
The mark [28] stands for this setting: second compound 1 µM, first compound 1 µM.
Where [29] appears, read: second compound 1 µM, first compound 3.16 µM.
Where [30] appears, read: second compound 1 µM, first compound 10 µM.
Setting [31] is: second compound 3.16 µM, first compound 0.0316 µM.
[32] abbreviates: second compound 3.16 µM, first compound 0.1 µM.
The mark [33] stands for this setting: second compound 3.16 µM, first compound 0.316 µM.
The mark [34] stands for this setting: second compound 3.16 µM, first compound 1 µM.
The mark [35] stands for this setting: second compound 3.16 µM, first compound 3.16 µM.
Setting [36] is: second compound 3.16 µM, first compound 10 µM.
The mark [37] stands for this setting: second compound 10 µM, first compound 0.0316 µM.
[38] abbreviates: second compound 10 µM, first compound 0.1 µM.
Setting [39] is: second compound 10 µM, first compound 0.316 µM.
The mark [40] stands for this setting: second compound 10 µM, first compound 1 µM.
Setting [41] is: second compound 10 µM, first compound 3.16 µM.
[42] abbreviates: second compound 10 µM, first compound 10 µM.

Several values for one entry are separate records, joined by “and”; a condition that tells them apart may be missing. Equal values may be shown once.

For the compound `C=CCn1c(=O)c2cnc(Nc3ccc(N4CCN(C)CC4)cc3)nc2n1-c1cccc(C(C)(C)O)n1`, the viability, T/C (compound 0.0316 µM) was 101% and 98.4% and 96.4%; the viability, T/C (compound 0.1 µM) was 104% and 102% and 96.9%; the viability, T/C (compound 0.316 µM) is 89.5% and 96.9% and 102%; the viability, T/C (compound 1 µM) is 48.4% and 59% and 66.4%; the viability, T/C (compound 3.16 µM) was 11.5% and 13.3% and 17.2%; the viability, T/C (compound 10 µM) is 5.76% and 7.73% and 8.28%. Besides, the IC50 (curve of compound) is 943 nM and 1250 nM and 1470 nM.
On to `COc1ncnc(C2CC2)c1-c1ncc2cnn(Cc3ccc(-c4nc(C(F)(F)F)cn4C(C)C)cc3)c2n1`, for which the viability, T/C runs as follows: (compound 0.0316 µM) 94% and 97.5% and 102%; (compound 0.1 µM) 93.6% and 99.8% and 99.5%; (compound 0.316 µM) 93.8% and 100% and 99.5%; (compound 1 µM) 104% and 98.2% and 103%; (compound 3.16 µM) 109% and 103% and 105%; (compound 10 µM) 106% and 108% and 99.5%. Further, for the setting “curve of compound”, the IC50 is greater than 10000 nM.
Take `COc1ncnc(C2CC2)c1-c1ncc2cnn(Cc3ccc(-c4nc(C(F)(F)F)cn4C(C)C)cc3)c2n1` + CN(C)c1ccc(Nc2c3ccc(NC(=O)CCN4CCCC4)cc3nc3cc(NC(=O)CCN4CCCC4)ccc23)cc1: the IC50 is greater than 10000 nM under setting [1]; greater than 10000 nM under setting [2]; greater than 10000 nM under setting [3]; greater than 10000 nM under setting [4]; greater than 10000 nM under setting [5]; greater than 10000 nM under setting [6]. Further, the viability, T/C was 108% under setting [7]; 100% under setting [8]; 115% under setting [9]; 104% under setting [10]; 108% under setting [11]; 104% under setting [12]. Moreover, the viability, T/C runs as follows: under setting [13], 105%; under setting [14], 105%; under setting [15], 102%; under setting [16], 103%; under setting [17], 105%; under setting [18], 114%. For the same compound, the viability, T/C is 103% under setting [19]; 110% under setting [20]; 110% under setting [21]; 101% under setting [22]; 107% under setting [23]; 105% under setting [24]. The viability, T/C reads like this: under setting [25], 109%; under setting [26], 91%; under setting [27], 101%; under setting [28], 112%; under setting [29], 104%; under setting [30], 102%. In addition, the viability, T/C is, setting by setting: under setting [31], 109%; under setting [32], 102%; under setting [33], 109%; under setting [34], 104%; under setting [35], 106%; under setting [36], 104%. For the same compound, the viability, T/C runs as follows: under setting [37], 93%; under setting [38], 101%; under setting [39], 94%; under setting [40], 98.9%; under setting [41], 96.1%; under setting [42], 92.8%.
Take `CCc1c2c(nc3ccc(O)cc13)-c1cc3c(c(=O)n1C2)COC(=O)[C@]3(O)CC`: the viability, T/C (compound 0.000999 µM) is 45.1% and 41.4% and 38.3%; the viability, T/C (compound 0.00316 µM) was 17.9% and 15.3% and 17.3%; the viability, T/C (compound 0.00999 µM) was 15.6% and 10.1% and 12.2%; the viability, T/C (compound 0.0316 µM) is 18% and 14.4% and 15%; the viability, T/C (compound 0.0999 µM) was 4.97% and 4.55% and 5.97%; the viability, T/C (compound 0.316 µM) is 0.56% and 1.25% and 0.77%. Besides, the IC50 (curve of compound) is less than 0.999 nM.
On to `Cc1[nH]c2ccccc2c1CCNCc1ccc(/C=C/C(=O)NO)cc1`, for which the viability, T/C (compound 0.000999 µM) was 103% and 99.2% and 97.9%; the viability, T/C (compound 0.00316 µM) was 98.1% and 105% and 101%; the viability, T/C (compound 0.00999 µM) was 110% and 118% and 113%; the viability, T/C (compound 0.0316 µM) is 114% (2×) and 115%; the viability, T/C (compound 0.0999 µM) is 49.5% and 57.8% and 96%; the viability, T/C (compound 0.316 µM) was 7.14% and 9% and 10.9%. In addition, the IC50 (curve of compound) was 99.1 nM and 120 nM and 186 nM.
Take `CC1COCCN1c1cc(C2(S(C)(=N)=O)CC2)nc(-c2ccnc3[nH]ccc23)n1` (configuration not stated) + Cc1[nH]c2ccc(F)cc2c1-c1nc2c3cccnc3c3ncccc3c2[nH]1: the IC50 under setting [1] is 7110 nM; the IC50 under setting [2] came to 8020 nM; the IC50 under setting [3] amounted to 9010 nM; the IC50 under setting [4] was 7960 nM; the IC50 under setting [5] amounted to 1300 nM; the IC50 under setting [6] was determined as 2110 nM. Further, the viability, T/C under setting [7] was 105%; the viability, T/C under setting [8] is 107%; the viability, T/C under setting [9] is 99.4%; the viability, T/C under setting [10] was 92%; the viability, T/C under setting [11] is 64.5%; the viability, T/C under setting [12] is 43.9%. Besides, the viability, T/C by setting is: under setting [13], 113%; under setting [14], 106%; under setting [15], 107%; under setting [16], 98.2%; under setting [17], 74.4%; under setting [18], 44.2%. Moreover, the viability, T/C reads like this: under setting [19], 106%; under setting [20], 105%; under setting [21], 112%; under setting [22], 109%; under setting [23], 78.7%; under setting [24], 47.2%. Moreover, the viability, T/C reads like this: under setting [25], 108%; under setting [26], 109%; under setting [27], 115%; under setting [28], 112%; under setting [29], 82%; under setting [30], 42%. The viability, T/C under setting [31] was 107%; the viability, T/C under setting [32] is 88.7%; the viability, T/C under setting [33] was 83.3%; the viability, T/C under setting [34] is 57%; the viability, T/C under setting [35] is 27.8%; the viability, T/C under setting [36] was 12.9%. For the same compound, the viability, T/C is, setting by setting: under setting [37], 94.5%; under setting [38], 107%; under setting [39], 104%; under setting [40], 74.9%; under setting [41], 36.9%; under setting [42], 15.4%.
